Legend:
[1] = molecular target: T1, AsqI (Aspergillus nidulans, UniProt C8VJQ3); assay: LC-MS initial rate of […]′-methoxyviridicatin […] formation; assay type: biochemical; details: MES Na 100 mM, NaCl 100 mM, pH 5.5, 30 °C; substrate 0.05-0.8 mM, Km extrapolated above tested range
T1 construct: hexahistidine-tagged, recombinant from Escherichia coli; plasmid pKW18244; zinc-dependent

[2] = test system: T2, PngL; assay: steady-state kinetics; assay type: biochemical, Penicillium sp. FKI-2140; details: accurate parameters prevented by difficult purification; conditions in Supplementary Methods
T2 construct: hexahistidine-tagged, recombinant from Escherichia coli; difficult to purify

T1 sequence (C8VJQ3 whole entry): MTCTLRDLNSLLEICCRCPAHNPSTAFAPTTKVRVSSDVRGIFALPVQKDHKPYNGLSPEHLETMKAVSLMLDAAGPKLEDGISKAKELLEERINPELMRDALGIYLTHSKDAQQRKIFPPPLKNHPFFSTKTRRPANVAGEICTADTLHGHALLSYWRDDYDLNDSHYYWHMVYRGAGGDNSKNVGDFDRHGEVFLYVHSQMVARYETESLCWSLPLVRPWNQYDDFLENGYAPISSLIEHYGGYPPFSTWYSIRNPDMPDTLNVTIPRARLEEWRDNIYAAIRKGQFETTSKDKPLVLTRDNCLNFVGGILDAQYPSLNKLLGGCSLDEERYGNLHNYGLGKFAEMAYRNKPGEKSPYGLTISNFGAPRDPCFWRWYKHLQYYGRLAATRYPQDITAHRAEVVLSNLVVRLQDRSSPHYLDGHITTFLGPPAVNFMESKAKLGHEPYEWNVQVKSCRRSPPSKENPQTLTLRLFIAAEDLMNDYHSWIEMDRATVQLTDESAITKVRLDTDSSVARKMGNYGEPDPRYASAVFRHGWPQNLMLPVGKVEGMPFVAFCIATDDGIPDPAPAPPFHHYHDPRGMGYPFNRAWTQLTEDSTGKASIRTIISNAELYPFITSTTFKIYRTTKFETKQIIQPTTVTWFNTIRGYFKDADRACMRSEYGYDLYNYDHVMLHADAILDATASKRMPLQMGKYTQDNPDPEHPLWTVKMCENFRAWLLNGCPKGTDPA

Km [1]: 2860 ± 520 µM
Km [2]: 350 ± 30 µM
Compound: COc1ccc(C2OC23C(=O)Nc2ccccc2C(=O)N3C)cc1 (single isomer, unassigned; (-)) [compound 2, (–)-4′-methoxycyclopenin]

Reference: paper PMC6053404, “Enzymatic one-step ring contraction for quinolone biosynthesis” (Nature Communications, 2018)
